Data reported in patent US6518316B1, “Cytokine production and tyrosine kinase inhibitors” (Xenova Limited, priority 1998, dated 2003).
Where two headings read alike, the source gives them in different places.

Experiments:
[1] = system: IL-2 production by Jurkat E6-1 cells; test: Cytokine (IL-2) release from PMA pre-treated, anti-CD28 stimulated Jurkat E6-1 cells (DELFIA); assay type: cell-based; details: Homo sapiens
Method: Jurkat E6-1 cell line was obtained from American Tissue Culture Collection (ATCC, Rockville, USA). The cells were pre-treated with 3 ng/ml phorbol myristate acetate (PMA) for three hours, washed and exposed to dose ranges of the compound to be tested followed by the addition of 5 μg/ml anti-CD28.
After 18 hours incubation at 37° C. and 5% CO2, cell culture supernatants were harvested for determination of IL-2 secretion by Dissociation Enhanced Lanthanide Fluorescence Immuno Assay (DELFIA). The effect of compound on cell cytotoxicity was determined using a redox potential sensitive dye, resazurin. Effects on protein synthesis were determined by investigation of [^3H] leucine uptake.

[2] = system: IL2 production by T cells; test: Cytokine (IL-2) release from purified T cells stimulated with anti-CD3 and anti-CD28 (DELFIA); assay type: cell-based; details: Homo sapiens, T-cell
Source text: The effect of compound (Ia) on IL-2 release was investigated using a previously described method (Van Cool S. W. et al., (1993) J. Immunol. 150: 3254-3263). T cells were purified by depletion of B cells and monocytes from Buffy coats obtained from normal healthy donors following separation of human peripheral blood mononuclear cells (PBMC) on Lymphoprep. Purified T cells were suspended in RPMI 1640 supplemented with 5% fetal bovine serum (FBS) and aliquoted into 96 well plates coated with anti-CD3. Cells were exposed to dose ranges of the compound to be tested followed by the addition of 5 μg/ml anti-CD28 and incubated for 18 hours at 37° C. and 5% CO2. IL-2 secretion in cell culture supernatants was determined using IL-2 DELFIA.

T cells = test: Toxicity to T cells; assay type: cell-based, human; details: 0.06 to 7 μM
[3] = system: TNF-α secretion by monocytes; test: Cytokine (TNF-α) release from LPS stimulated monocytes (DELFIA); assay type: cell-based; details: Homo sapiens, Monocyte
Method: The effect of compound (Ia) on TNF-α release was investigated using a previously described method (Bakouche, O. et al., (1992), J. Immunol: 14, 84-91). Human monocytes were purified by elutriation from Buffy coats obtained from normal healthy donors after the separation of peripheral blood mononuclear cells (PBMC) on Lymphoprep. The monocytes were suspended in RPMI 1640 with 5% FBS and exposed to dose ranges of the compound to be tested followed by the addition of 1 ng/ml LPS. After incubation for 18 hours at 37° C. and 5% CO2 cell culture supernatants were harvested and stored at −70° C. Effects on TNF-α release were determined using a DELFIA.

TNF-α = TNF-α release from PHA and LPS stimulated whole blood (DELFIA); assay type: cell-based; details: Homo sapiens
Method: (§1) Whole blood samples obtained from up to seven normal healthy volunteers were diluted in an equal volume of RPMI 1640 with 5% FBS and exposed to dose ranges of compound (Ia) followed by the addition of 10 μg/ml phytohaemagglutinin (PHA) and 100 ng/ml LPS. After incubation for 48 hours at 37° C. and 5% CO2 serum samples were harvested for determination of effect on IL-2 and TNF-α secretion using DELFIAs specific for each cytokine respectively.

IL-2 = IL-2 release from PHA and LPS stimulated whole blood (DELFIA); assay type: cell-based; details: Homo sapiens
Method: as §1

recombinant abl kinase = recombinant abl kinase (Homo sapiens, UniProt P00519); test: Inhibition of tyrosine kinase activity (abl kinase, LANCE time resolved fluorescence); assay type: biochemical
Source text: Phosphorylation of the peptide substrate was detected using a non-separation time resolved fluorescence assay (LANCE™) using anti-phosphotyrosine conjugated europium and streptavidin conjugated allophycocyanin (APC).

Sequence of recombinant abl kinase (P00519 whole entry): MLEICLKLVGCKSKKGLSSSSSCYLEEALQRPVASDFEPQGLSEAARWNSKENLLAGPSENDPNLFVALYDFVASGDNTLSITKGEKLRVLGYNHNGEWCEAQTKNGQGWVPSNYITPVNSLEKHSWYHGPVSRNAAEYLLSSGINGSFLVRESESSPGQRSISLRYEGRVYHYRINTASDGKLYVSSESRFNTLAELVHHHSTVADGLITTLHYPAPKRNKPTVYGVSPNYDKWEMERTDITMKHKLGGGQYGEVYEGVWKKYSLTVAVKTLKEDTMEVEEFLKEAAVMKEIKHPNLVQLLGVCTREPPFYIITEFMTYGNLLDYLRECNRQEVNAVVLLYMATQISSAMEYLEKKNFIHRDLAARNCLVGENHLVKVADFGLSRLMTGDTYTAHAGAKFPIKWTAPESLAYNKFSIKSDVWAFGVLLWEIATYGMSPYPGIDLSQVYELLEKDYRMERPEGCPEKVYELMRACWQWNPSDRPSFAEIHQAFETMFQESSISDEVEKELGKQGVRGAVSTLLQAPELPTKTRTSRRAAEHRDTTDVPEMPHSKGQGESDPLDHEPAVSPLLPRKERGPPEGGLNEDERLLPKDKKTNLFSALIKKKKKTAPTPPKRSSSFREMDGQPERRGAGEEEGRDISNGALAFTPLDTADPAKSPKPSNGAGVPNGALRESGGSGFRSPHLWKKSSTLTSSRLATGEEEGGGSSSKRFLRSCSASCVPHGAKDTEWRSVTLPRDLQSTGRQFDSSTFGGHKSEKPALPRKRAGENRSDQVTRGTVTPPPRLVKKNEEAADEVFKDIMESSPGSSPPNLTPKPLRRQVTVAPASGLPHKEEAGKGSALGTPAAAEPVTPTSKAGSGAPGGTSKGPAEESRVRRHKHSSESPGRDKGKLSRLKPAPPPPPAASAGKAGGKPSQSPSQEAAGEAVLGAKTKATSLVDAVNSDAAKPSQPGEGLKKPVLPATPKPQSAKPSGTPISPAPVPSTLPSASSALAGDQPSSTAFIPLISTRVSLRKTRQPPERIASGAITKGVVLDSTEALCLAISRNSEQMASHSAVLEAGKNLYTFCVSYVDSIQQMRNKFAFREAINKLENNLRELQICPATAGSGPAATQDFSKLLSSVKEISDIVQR

## CO[C@@H]1[C@@H]2C(=C3CCC(=O)c4c(O)ccc2c43)c2cccc(O)c2[C@@H]1O (relative stereo) [Compound (Ia)]
[1]; Jurkat E6.1, PMA pre-treated, anti-CD28, 18 hours, read-out: IC50 for the inhibition of anti-CD28 induced IL-2 production by Jurkat E6-1 cells
  IC50: 340 nM
[1]; Jurkat E6.1, 0.056 μM, read-out: % Inhibition of anti-CD28 induced IL-2 by PMA pre-treated Jurkat E6-1
  inhibition at 0.056 µM: 29%
[1]; Jurkat E6.1, 0.11 μM, read-out: % Inhibition of anti-CD28 induced IL-2 by PMA pre-treated Jurkat E6-1
  inhibition at 0.11 µM: 30.5%
[1]; Jurkat E6.1, 0.22 μM, read-out: % Inhibition of anti-CD28 induced IL-2 by PMA pre-treated Jurkat E6-1
  inhibition at 0.22 µM: 36%
[1]; Jurkat E6.1, 0.44 μM, read-out: % Inhibition of anti-CD28 induced IL-2 by PMA pre-treated Jurkat E6-1
  inhibition at 0.44 µM: 57.8%
[1]; Jurkat E6.1, 0.89 μM, read-out: % Inhibition of anti-CD28 induced IL-2 by PMA pre-treated Jurkat E6-1
  inhibition at 0.89 µM: 85.4%
[1]; Jurkat E6.1, 1.8 μM, read-out: % Inhibition of anti-CD28 induced IL-2 by PMA pre-treated Jurkat E6-1
  inhibition at 1.8 µM: 92.2%
[1]; Jurkat E6.1, 3.6 μM, read-out: % Inhibition of anti-CD28 induced IL-2 by PMA pre-treated Jurkat E6-1
  inhibition at 3.6 µM: 89.1%
[1]; Jurkat E6.1, 7.1 μM, read-out: % Inhibition of anti-CD28 induced IL-2 by PMA pre-treated Jurkat E6-1
  inhibition at 7.1 µM: 91.5%
[2]; 0.056 µM, read-out: % Inhibition of anti-CD-28 and Anti-CD3 induced IL-2 by T cells
  inhibition at 0.056 µM: 29.8%
[2]; 0.11 µM, read-out: % Inhibition of anti-CD-28 and Anti-CD3 induced IL-2 by T cells
  inhibition at 0.11 µM: 47.3%
[2]; 0.22 µM, read-out: % Inhibition of anti-CD-28 and Anti-CD3 induced IL-2 by T cells
  inhibition at 0.22 µM: 106%
[2]; 0.44 µM, read-out: % Inhibition of anti-CD-28 and Anti-CD3 induced IL-2 by T cells
  inhibition at 0.44 µM: 88.3%
[2]; 0.89 µM, read-out: % Inhibition of anti-CD-28 and Anti-CD3 induced IL-2 by T cells
  inhibition at 0.89 µM: 98.6%
[2]; 1.8 µM, read-out: % Inhibition of anti-CD-28 and Anti-CD3 induced IL-2 by T cells
  inhibition at 1.8 µM: 100%
[2]; 3.6 µM, read-out: % Inhibition of anti-CD-28 and Anti-CD3 induced IL-2 by T cells
  inhibition at 3.6 µM: 100%
[2]; 7.1 µM, read-out: % Inhibition of anti-CD-28 and Anti-CD3 induced IL-2 by T cells
  inhibition at 7.1 µM: 100%
[2]; 18 hours, read-out: IC50 for inhibition of anti-CD3 and anti-CD28 induced IL2 production by T cells
  IC50: 120 nM
T cells
  toxicity to T cells: not toxic
[3]; 0.09 µM, read-out: % Inhibition of LPS induced TNF-a by monocytes
  inhibition at 0.09 µM: 19%
[3]; 0.18 µM, read-out: % Inhibition of LPS induced TNF-a by monocytes
  inhibition at 0.18 µM: 32.1%
[3]; 0.36 µM, read-out: % Inhibition of LPS induced TNF-a by monocytes
  inhibition at 0.36 µM: 48.1%
[3]; 0.7 µM, read-out: % Inhibition of LPS induced TNF-a by monocytes
  inhibition at 0.7 µM: 57.6%
[3]; 1.4 µM, read-out: % Inhibition of LPS induced TNF-a by monocytes
  inhibition at 1.4 µM: 73.2%
[3]; 2.9 µM, read-out: % Inhibition of LPS induced TNF-a by monocytes
  inhibition at 2.9 µM: 80%
[3]; 5.7 µM, read-out: % Inhibition of LPS induced TNF-a by monocytes
  inhibition at 5.7 µM: 89%
[3]; 18 hours, read-out: IC50 for inhibition of LPS induced TNF-α secretion by monocytes
  IC50: 420 nM
TNF-α; Donor 1, read-out: IC50 Inhibition of TNF-α
  IC50: 14000 nM
TNF-α; Donor 2, read-out: IC50 Inhibition of TNF-α
  IC50: 14000 nM
TNF-α; Donor 3, read-out: IC50 Inhibition of TNF-α
  IC50: 700 nM
TNF-α; Donor 4, read-out: IC50 Inhibition of TNF-α
  IC50: > 2700 nM
TNF-α; Donor 5, read-out: IC50 Inhibition of TNF-α
  IC50: 5300 nM
TNF-α; Donor 6, read-out: IC50 Inhibition of TNF-α
  IC50: 3000 nM
IL-2; Donor 1, read-out: IC50 Inhibition of IL-2
  IC50: 220 nM
IL-2; Donor 2, read-out: IC50 Inhibition of IL-2
  IC50: 1200 nM
IL-2; Donor 3, read-out: IC50 Inhibition of IL-2
  IC50: 430 nM
IL-2; Donor 4, read-out: IC50 Inhibition of IL-2
  IC50: > 2700 nM
IL-2; Donor 5, read-out: IC50 Inhibition of IL-2
  IC50: < 400 nM
IL-2; Donor 6, read-out: IC50 Inhibition of IL-2
  IC50: < 400 nM
Recombinant abl kinase
  concentrations at which phosphorylation of the peptide by abl kinase was inhibited: 0.001 to 5.2 µM
Recombinant abl kinase; 0.001 μM
  inhibition at 0.001 µM: 39%
Recombinant abl kinase; 0.01 μM
  inhibition at 0.01 µM: 56.2%
Recombinant abl kinase; 0.081 μM
  inhibition at 0.081 µM: 86.3%
Recombinant abl kinase; 0.65 μM
  inhibition at 0.65 µM: 98.6%
Recombinant abl kinase; 5.2 μM
  inhibition at 5.2 µM: 100%
Recombinant abl kinase; abl kinase, peptide 6-20 p34cdc substrate
  IC50: 6 nM
